For test [1], the target named is T1, delF508-CFTR (Homo sapiens, UniProt P13569, DEL508-508).
T1 construct: functional activity of the CFTR channel (Chloride ion transport) in patient derived primary human bronchial epithelial cells; host or cells: patient-derived primary human bronchial epithelial cells (delF508-CFTR)
In words: Measurement of delF508-CFTR functional activity in primary human bronchial epithelial cells (HBECs) using Multi-Transepithelial Clamp Circuit (MTECC-24) assay. To be noted: primary CF HBECs; for MTECC24 CFHBEC- Amax %: test compound added 24h before assay plus potentiator, relative to reference combination (2 μM corrector + 0.5 μM potentiator); for pEC50: test compound added 24h before assay, in the presence of potentiator, mean of at least two replicates, read-out: MTECC24 CFHBEC- EC50. Type of test: cell-based. The method, boiled down:
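Compound tested as 10-point, 1-in-3 concentration response (0.1% or 0.2% DMSO), 24 h basolateral pre-incubation, then re-added to both sides. MTECC-24 measured Ieq in ALI-differentiated primary delF508 bronchial cells after amiloride, forskolin activation, potentiator and INH-172 block; data normalized to DMSO baseline, EC50 fitted.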

Test [2] has as its target T2, horseradish peroxidase (HRP) tagged delF508-CFTR (Homo sapiens, UniProt P13569, DEL508-508).
T2 construct: expressed in transfected cells
In words: Measurement of delF508-CFTR-HRP surface expression in CFBE41o- cells.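 On DelF508-CFTR-HRP Amax %: percent efficacy relative to reference corrector lumacaftor.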 Type of test: cell-based. The settings on record: delF508-CFTR-HRP surface expression, CFBE41o- cells; for Emax: read-out: DelF508-CFTR-HRP Amax %; for pEC50: read-out: DelF508-CFTR-HRP EC50. The method, boiled down:
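Surface-trafficked delF508-CFTR detected via extracellular HRP tag, read as luminescence from a membrane-impermeant substrate in CFBE41o- cells. Cells pre-induced 48h with 500 ng/mL doxycycline, then exposed 24h at 37° C to a 10-point, 3-fold dilution series from 10 μM (DMSO ≤0.5%). Triplicate dose-responses fitted logistically for EC50 after per-plate normalization; fold change versus reference compound.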

pEC50: −log10 of the molar value.

T2 sequence (P13569 with tags, fused parts or gaps DEL508-508): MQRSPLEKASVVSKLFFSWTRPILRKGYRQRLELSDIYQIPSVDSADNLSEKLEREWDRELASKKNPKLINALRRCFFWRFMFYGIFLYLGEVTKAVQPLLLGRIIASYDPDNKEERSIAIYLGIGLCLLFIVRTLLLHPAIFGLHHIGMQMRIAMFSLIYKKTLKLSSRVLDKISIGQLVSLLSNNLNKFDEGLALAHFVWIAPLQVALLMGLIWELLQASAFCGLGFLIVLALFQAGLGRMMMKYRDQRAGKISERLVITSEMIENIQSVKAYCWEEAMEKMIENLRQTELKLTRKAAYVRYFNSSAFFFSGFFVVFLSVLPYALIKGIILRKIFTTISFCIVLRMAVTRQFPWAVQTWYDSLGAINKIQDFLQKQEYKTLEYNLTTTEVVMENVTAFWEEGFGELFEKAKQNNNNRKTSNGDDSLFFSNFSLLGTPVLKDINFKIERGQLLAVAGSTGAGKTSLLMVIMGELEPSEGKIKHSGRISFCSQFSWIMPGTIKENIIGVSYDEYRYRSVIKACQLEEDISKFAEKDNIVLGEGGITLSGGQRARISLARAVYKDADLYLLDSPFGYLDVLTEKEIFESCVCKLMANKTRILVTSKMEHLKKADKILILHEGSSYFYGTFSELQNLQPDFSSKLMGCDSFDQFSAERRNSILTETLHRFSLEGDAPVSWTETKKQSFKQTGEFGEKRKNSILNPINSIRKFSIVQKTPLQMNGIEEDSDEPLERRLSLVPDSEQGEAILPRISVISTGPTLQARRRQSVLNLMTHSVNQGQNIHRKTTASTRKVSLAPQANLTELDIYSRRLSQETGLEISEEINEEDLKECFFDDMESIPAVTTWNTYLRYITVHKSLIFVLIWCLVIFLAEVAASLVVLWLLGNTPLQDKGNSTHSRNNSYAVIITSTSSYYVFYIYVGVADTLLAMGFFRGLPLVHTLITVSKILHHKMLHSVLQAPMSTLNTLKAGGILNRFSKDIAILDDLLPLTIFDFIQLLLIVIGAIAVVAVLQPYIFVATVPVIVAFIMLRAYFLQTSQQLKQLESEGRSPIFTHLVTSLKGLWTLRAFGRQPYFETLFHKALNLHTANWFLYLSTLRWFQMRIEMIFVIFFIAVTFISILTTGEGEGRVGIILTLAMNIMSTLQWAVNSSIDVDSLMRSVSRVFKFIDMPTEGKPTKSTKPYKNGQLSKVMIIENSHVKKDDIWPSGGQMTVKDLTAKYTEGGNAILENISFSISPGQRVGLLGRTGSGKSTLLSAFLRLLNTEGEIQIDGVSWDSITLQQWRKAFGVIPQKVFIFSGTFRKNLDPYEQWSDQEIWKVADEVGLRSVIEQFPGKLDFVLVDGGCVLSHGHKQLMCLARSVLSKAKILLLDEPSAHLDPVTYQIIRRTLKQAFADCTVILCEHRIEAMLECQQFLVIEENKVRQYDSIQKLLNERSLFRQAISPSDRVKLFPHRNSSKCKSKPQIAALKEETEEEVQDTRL
T1 sequence (P13569 with tags, fused parts or gaps DEL508-508): as above

With `CCOC(=O)C1(C)CCN(c2cccc(S(=O)(=O)Nc3ccc(C(F)(F)F)c(-c4ccccc4C)n3)n2)CC1` [Example 259, ethyl 4-methyl-1-(6-{[6-(2-methylphenyl)-5-(trifluoromethyl)pyridin-2-yl]sulfamoyl}pyridin-2-yl)piperidine-4-carboxylate], in test [1], the “MTECC24 CFHBEC- Amax %” value is recorded as 66.7% and the pEC50 (commonly the negative decadic logarithm of the EC50, by convention in mol/L) was 8.72. In addition, in test [2], the Emax was 801% and the pEC50 is 5.81.
The matching figures for `Cc1ccc(F)cc1-c1nc(NS(=O)(=O)c2cccc(N3CCC(C)(C(=O)O)CC3)n2)ccc1C(F)(F)F` [Example 262, 1-(6-{[6-(5-fluoro-2-methylphenyl)-5-(trifluoromethyl)pyridin-2-yl]sulfamoyl}pyridin-2-yl)-4-methylpiperidine-4-carboxylic Acid]: 81.2%, 7.85, 628% and 5.64.
The matching figures for `Cc1c(F)cccc1-c1nc(NS(=O)(=O)c2cccc(N3CCC(C)(C(=O)O)CC3)n2)ccc1C(F)(F)F` [Example 263, 1-(6-(N-(6-(3-fluoro-2-methylphenyl)-5-(trifluoromethyl)pyridin-2-yl)sulfamoyl)pyridin-2-yl)-4-methylpiperidine-4-carboxylic Acid]: 54.4%, 8.08, 481% and 5.54.
Turning to `Cc1ccccc1-c1nc(NS(=O)(=O)c2cccc(N3CCC(C)(C(=O)O)CC3)n2)ccc1C(F)(F)F` [Example 264, 4-methyl-1-(6-(N-(6-(o-tolyl)-5-(trifluoromethyl)pyridin-2-yl)sulfamoyl)pyridin-2-yl)piperidine-4-carboxylic Acid], in test [1], the “MTECC24 CFHBEC- Amax %” value worked out at 67.2% and the pEC50 is 7.93. In addition, in test [2], the Emax turned out to be 448% and the pEC50 is 5.58.
Turning to `Cc1cccc(C)c1-c1nc(NS(=O)(=O)c2cccc(N3CCC(C)(C(=O)O)CC3)n2)ccc1C(F)(F)F` [Example 265, 1-(6-{[6-(2,6-dimethylphenyl)-5-(trifluoromethyl)pyridin-2-yl]sulfamoyl}pyridin-2-yl)-4-methylpiperidine-4-carboxylic Acid], in test [1], the “MTECC24 CFHBEC- Amax %” value came out at 53.1% and the pEC50 was 7.87. Moreover, in test [2], the Emax turned out to be 879% and the pEC50 is 5.74.
On to `COC(=O)C1(N)CCN(c2cccc(S(=O)(=O)Nc3ccc(Cl)c(-c4c(C)cccc4C)n3)n2)CC1` [Example 270, methyl 4-amino-1-(6-{[5-chloro-6-(2,6-dimethylphenyl)pyridin-2-yl]sulfamoyl}pyridin-2-yl)piperidine-4-carboxylate], for which, in test [1], the “MTECC24 CFHBEC- Amax %” value worked out at 69.5% and the pEC50 was 7.02. In test [2], the Emax came out at 561% and the pEC50 was 5.71.
For `Cc1cccc(C)c1-c1nc(NS(=O)(=O)c2cccc(NC3CCOCC3)n2)ccc1Cl` [Example 271, N-[5-chloro-6-(2,6-dimethylphenyl)pyridin-2-yl]-6-[(oxan-4-yl)amino]pyridine-2-sulfonamide], in that order: 66.6%, 8.06, 837% and 5.96.
For `Cc1ccc(F)cc1-c1nc(NS(=O)(=O)c2cccc(N[C@@H]3CCOC[C@@H]3O)n2)ccc1Cl` [Example 272, N-[5-chloro-6-(5-fluoro-2-methylphenyl)pyridin-2-yl]-6-{[(3R,4R)-3-hydroxyoxan-4-yl]amino}pyridine-2-sulfonamide], in that order: 66.4%, 7.98, 806% and 5.64.
Regarding `Cc1ccc(F)cc1-c1nc(NS(=O)(=O)c2cccc(N[C@@H]3CCOC[C@H]3O)n2)ccc1Cl` [Example 273, N-[5-chloro-6-(5-fluoro-2-methylphenyl)pyridin-2-yl]-6-{[(3S,4R)-3-hydroxyoxan-4-yl]amino}pyridine-2-sulfonamide], in test [1], the “MTECC24 CFHBEC- Amax %” value was found to be 70.9% and the pEC50 was 8.19. Moreover, the pEC50 in test [2] was 5.86.
Regarding `Cc1ccccc1-c1nc(NS(=O)(=O)c2cccc(N[C@@H]3CCOC[C@H]3O)n2)ccc1C(F)(F)F` [Example 274, 6-(((3S,4R)-3-hydroxytetrahydro-2H-pyran-4-yl)amino)-N-(6-(o-tolyl)-5-(trifluoromethyl)pyridin-2-yl)pyridine-2-sulfonamide], in test [1], the “MTECC24 CFHBEC- Amax %” value was 77.0% and the pEC50 was 8.48. Besides, in test [2], the Emax turned out to be 779% and the pEC50 was 5.73.
Regarding `Cc1ccc(F)cc1-c1nc(NS(=O)(=O)c2cccc(N[C@@H]3COCC[C@H]3O)n2)ccc1Cl` [Example 278, N-[5-chloro-6-(5-fluoro-2-methylphenyl)pyridin-2-yl]-6-{[(3R,4R)-4-hydroxyoxan-3-yl]amino}pyridine-2-sulfonamide], in test [1], the “MTECC24 CFHBEC- Amax %” value was found to be 73.4% and the pEC50 was 8.27. For the same molecule, in test [2], the negative logarithm of the EC50 (pEC50) was 5.96.
For `Cc1ccccc1-c1nc(NS(=O)(=O)c2cccc(N[C@@H]3COCC[C@H]3O)n2)ccc1C(F)(F)F` [Example 279, 6-{[(3R,4R)-4-hydroxyoxan-3-yl]amino}-N-[6-(2-methylphenyl)-5-(trifluoromethyl)pyridin-2-yl]pyridine-2-sulfonamide], in that order: 93.7%, 8.46 and 5.92.
For `Cc1ccccc1-c1nc(NS(=O)(=O)c2cccc(N[C@H]3C[C@@H](O)C3)n2)ccc1C(F)(F)F` [Example 283, N-[6-(2-methylphenyl)-5-(trifluoromethyl)pyridin-2-yl]-6-{[(1s,3s)-3-hydroxycyclobutyl]amino}pyridine-2-sulfonamide], in that order: 84.0%, 9.10 and 5.80.
Regarding `Cc1ccccc1-c1nc(NS(=O)(=O)c2cccc(N[C@H]3C[C@H](O)C3)n2)ccc1C(F)(F)F` [Example 284, N-[6-(2-methylphenyl)-5-(trifluoromethyl)pyridin-2-yl]-6-{[(1r,3r)-3-hydroxycyclobutyl]amino}pyridine-2-sulfonamide], in test [1], the “MTECC24 CFHBEC- Amax %” value is 85.2% and the pEC50 is 9.05. Moreover, in test [2], the Emax amounted to 493% and the pEC50 was 5.64.
With `Cc1cccc(C)c1-c1nc(NS(=O)(=O)c2cccc(N[C@H]3C[C@@](C)(O)C3)n2)ccc1Cl` [Example 285, N-[5-chloro-6-(2,6-dimethylphenyl)pyridin-2-yl]-6-{[(1r,3s)-3-hydroxy-3-methylcyclobutyl]amino}pyridine-2-sulfonamide], the “MTECC24 CFHBEC- Amax %” value in test [1] was found to be 74.1%. Moreover, the results for the pEC50 in test [1] and in test [2] were 7.72 and 5.91, respectively.
For the molecule `Cc1cccc(C)c1-c1nc(NS(=O)(=O)c2cccc(N[C@H]3C[C@@H](O)C3)n2)ccc1Cl` [Example 286, N-[5-chloro-6-(2,6-dimethylphenyl)pyridin-2-yl]-6-{[(1s,3s)-3-hydroxycyclobutyl]amino}pyridine-2-sulfonamide], in test [1], the “MTECC24 CFHBEC- Amax %” value is recorded as 153.1% and the pEC50 was 7.62. In addition, in test [2], the Emax is 847% and the pEC50 is 5.83.
On to `Cc1cccc(C)c1-c1nc(NS(=O)(=O)c2cccc(N[C@H]3C[C@H](O)C3)n2)ccc1Cl` [Example 287, N-[5-chloro-6-(2,6-dimethylphenyl)pyridin-2-yl]-6-{[(1r,3r)-3-hydroxycyclobutyl]amino}pyridine-2-sulfonamide], for which, in test [1], the “MTECC24 CFHBEC- Amax %” value stood at 74.8% and the pEC50 is 8.15. In test [2], the Emax was 384% and the pEC50 is 5.85.
As to `Cc1cccc(C)c1-c1nc(NS(=O)(=O)c2cccc(O[C@@H]3CO[C@H](CO)C3)n2)ccc1Cl` [Example 288, N-[5-chloro-6-(2,6-dimethylphenyl)pyridin-2-yl]-6-{[(3S,5S)-5-(hydroxymethyl)oxolan-3-yl]oxy}pyridine-2-sulfonamide], in test [1], the “MTECC24 CFHBEC- Amax %” value is listed as 69.5% and the negative-log EC50 (pEC50) is 7.47. In addition, in test [2], the Emax stood at 495% and the pEC50 is 5.77.
The matching figures for `Cc1ccc(F)cc1-c1nc(NS(=O)(=O)c2cccc(O[C@@H]3COC[C@@H]3O)n2)ccc1Cl` [Example 289, N-(5-chloro-6-(5-fluoro-2-methylphenyl)pyridin-2-yl)-6-(((3R,4S)-4-hydroxytetrahydrofuran-3-yl)oxy)pyridine-2-sulfonamide]: 50.5%, 7.92, 450% and 5.63.
For `Cc1ccc(C#N)cc1-c1nc(NS(=O)(=O)c2cccc(N3CC(C)(O)C3)n2)ccc1C(F)(F)F` [Example 299, N-(6-(5-cyano-2-methylphenyl)-5-(trifluoromethyl)pyridin-2-yl)-6-(3-hydroxy-3-methylazetidin-1-yl)pyridine-2-sulfonamide], in that order: 61.7%, 8.03, 554% and 5.61.

The record behind these values is US11066369B2, “N-(pyridin-2-yl)pyridine-sulfonamide derivatives and their use in the treatment of disease” (Novartis AG, priority 2016, dated 2021).
